Values joined by “and” are separate entries in the source; they are usually repeats but may differ in a detail not shown here. Identical values can stand only once.
Columns and labels:
[1] = Biodistribution test of radioactive arsenic trioxide in rats with liver tumors (gamma counter); assay type: in vivo
Procedure: Hepatic Artery Injection:
The hepatic artery was dissected from the hepatic tissue of the rats by surgery. A PE-10 tube was introduced into the hepatic artery, and the test solution containing neutron-irradiated arsenic trioxide as prepared in Example 1 was injected into the hepatic artery. The PE-10 tube was removed after injection, and a surgical thread was used to bind and fix the blood vessels, followed by suturing of the wound.
The test injection solution containing neutron-irradiated arsenic trioxide as prepared in Example 1 was injected into the tail vein using a syringe with needle no. 25.
(§1) A fixed amount of radioactive arsenic trioxide (radioactivity range: 2.77˜3.25 mCi/ml, concentration: 1 mg/ml, animal injection dose: 0.45 mg/kg) prepared in Example 1 was injected into the rats with liver tumors through the hepatic artery and tail vein, respectively.
(§2) The rats were sacrificed by taking a large amount of blood from the heart at hours 2, 4, 16, 24 and 48, respectively, after injection, and the blood, hearts, lungs, livers, spleens, kidneys, intestines, bladders, muscles, and tumors were removed. These tissues or organs were placed in respective tubes, and their irradiation intensity was measured by a gamma counter (Wallac 1470 WIZARD). The content percentage of arsenic trioxide per each gram of the tissue or organ was calculated using standard curve regression. There were two or three experimented rats in each experimental group.
Some of the organs and tissues (blood, kidneys and livers) were transferred to the Institute of Nuclear Energy Research for conducting Inductively Coupled Plasma Mass Spectrometry (ICP-MAS) so as to observe the biodistribution of arsenic trioxide in the tumors and organs or tissues.

[2] = Radiation absorption dose in organs or tissues and tumors (MIRD method, MIRDOSE 3); assay type: in vivo, rats; conditions: for Radiation absorption dose, Lung: rats with liver tumors
Procedure: as §1, §2
Radioactive arsenic trioxide was injected respectively into the tail vein and hepatic artery of the rats by I.V. and I.H. The dosage was calculated using MIRD method, and the residence time in each of the organs and the tumors was calculated using Excel software. Finally, the radiation absorption dose in each of the organs or tissues and the tumors was calculated using MIROSE 3 software.

[3] = system: N1-S1 rat hepatoma liver tumors; experiment: Therapeutic effect assessment, continuous tail vein injection, rats with liver tumors; assay type: in vivo; design: key to Response: Increase in size of tumor (In %) is classified as “Poor Response”; decrease in size of tumor within 0%-40% is classified as “Mild Response”; decrease in size of tumor to 50% or more or disappearance of tumor is classified as “Good Response.”; conditions: for Effect on the inhibition of tumor growth / Survival of the group in week 8: continuous tail vein injection; for Response / Survival time: individual rats, continuous tail vein injection 0.45 mg/kg for two weeks
Text: (§3) The tumor cells for the establishment of the animal model with liver tumor were of a rat hepatoma cell line, N1-S-1, purchased from the American Type Culture Collection (ATCC, P.O. Box 1549, Manassas, Va. 20108 USA), and were subcultured to set up a Master Cell Bank and a Working Cell Bank.
(§4) The rat hepatoma cells, N1-S1, were suspended cells that were dispersed in Iscove's Modified Dulbecco's Medium (IMDM) (GibcoBRL®) supplemented with 1% penicillin (GibcoBRL®) and 10% fetal bovine serum (GibcoBRL®), and were cultured in an incubator with 5% CO2, at 37° C.
(§5) When cultured to 1.5×10^6 cell/ml, 4×10^6 cell/0.06 ml of N1-S1 cells were sampled and then implanted into Spawn-Dawley male rats (5-week-old, 150 g) between the liver and liver capsule by surgery, and the wounds were closed by sutures. Rearing of the rats was continued for ten days, and ultrasonic scanning was used to detect any growth of liver tumor and tumor size. After scanning, animals that had developed liver tumors were used to conduct the experiments of tumor growth inhibition, and euthanasia was practiced on the rest of the rats.
The rats with liver tumors were given normal saline, an injection solution containing arsenic trioxide without neutron irradiation treatment (concentration: 1 mg/ml; animal injection dosage: 0.45 mg/kg), and the injection solution prepared in Example 1 which contained radioactive arsenic trioxide having subjected to neutron irradiation treatment (radioactivity range: 2.77˜3.25 mCi/ml; concentration: 1 mg/ml; and animal injection dosage: 0.45 mg/kg), respectively, via tail vein injection, and the injection was continued for two weeks.
(§6) Before injection, the size of the liver tumors was examined by ultrasonic scanning. Ultrasonic scanning was conducted in the first week, the second week, and the fifth week, respectively, after start of the injection so as to observe the change in size of the tumor. Finally, the rats were sacrificed for observing whether there was metastasis.

[4] = system: N1-S1 rat hepatoma liver tumors; experiment: Therapeutic effect assessment, hepatic artery single injection, rats with liver tumors; assay type: in vivo; conditions: for Therapeutic effect on the tumors: hepatic artery single injection
Text: as §3, §4, §5
The blood vessels of the hepatic artery were dissected from the hepatic tissue of the rats by surgery, and normal saline, an injection solution containing arsenic trioxide without neutron irradiation treatment (concentration: 1 mg/ml; and animal injection dosage: 0.45 mg/kg), and the injection solution prepared in Example 1 which contained radioactive arsenic trioxide having subjected to neutron irradiation treatment (radioactivity range: 2.77˜3.25 mCi/ml; concentration: 1 mg/ml; and animal injection dosage: 0.45 mg/kg dose), were injected respectively via the hepatic artery in single injections.
as §6, with “injection” for “injection so as”

[5] = system: N1-S1 rat hepatoma liver tumors; experiment: Therapeutic effect assessment, liver tumor direct injection, rats with liver tumors; assay type: in vivo; conditions: for Response / Survival time: individual rats, liver tumor direct injection 0.45 mg/kg once every week, twice in total; for Change of tumor size 4 weeks after injection: liver tumor direct injection
Text: as §3, §4, §5
The rats with liver tumors were subjected to surgery. After the locations of the liver tumors were found, the tumors were directly injected with normal saline, an injection containing arsenic trioxide without neutron irradiation treatment (concentration: 1 mg/ml; animal injection dosage: 0.45 mg/kg), and the injection prepared in Example 1 which contained radioactive arsenic trioxide having subjected to neutron irradiation treatment (radiation activity range: 2.77˜3.25 mCi/ml; concentration: 1 mg/ml of concentration; and animal injection dosage: 0.45 mg/kg), respectively, once every week, twice in total.
as §6, with “injection” for “injection so as”

[6] = system: acute promyelocytic leukemia; conditions: cited from earlier work
[7] = system: acute promyelocytic leukemia cell lines; conditions: cited from earlier work
[8] = individual rats, hepatic artery single injection 0.45 mg/kg
[9] = individual rats, hepatic artery single injection 0.45 mg/kg, 0.45 mg/kg

## O=[76As]O[76As]=O (stereo not shown) [Radioactive arsenic trioxide, radioactive arsenic trioxide]
[1]; 0.45 mg/kg, hepatic artery and tail vein injection, hours 2-48 (FIG. 3)
  Contents of radioactive arsenic trioxide in the heart, the lung, and the spleen: 1˜3 % ID/g
[1]; 48 hours after injection, IV and IH (FIG. 3)
  Residual contents in all the organs or tissues: dropped
[1]; hepatic artery injection, 0.45 mg/kg (FIG. 2)
  Time of peak content of radioactive arsenic trioxide in the liver tumor: between hours 2 and 4
[1]; hepatic artery vs tail vein injection (FIG. 2)
  Time after which contents in the liver tumors by the two routes reached identical equivalent values: 16 h
[1]; hour 4 after injection via hepatic artery and tail vein
  Contents in the bladder and urine relative to other tested organs: second only to that in the tumor
[2]; IH (hepatic artery injection)
  Radiation absorption dose, Intestine: 0.23 mGy/MBq
  Radiation absorption dose, Kidney: 0.28 mGy/MBq
  Radiation absorption dose, Liver: 0.21 mGy/MBq
  Radiation absorption dose, Muscle: 0.12 mGy/MBq
  Radiation absorption dose, Spleen: 0.95 mGy/MBq
  Radiation absorption dose, Tumor: 21 mGy/MBq
  Radiation absorption dose, Lung: 0.56 mGy/MBq
[2]; IV (tail vein injection)
  Radiation absorption dose, Intestine: 0.16 mGy/MBq
  Radiation absorption dose, Kidney: 0.25 mGy/MBq
  Radiation absorption dose, Liver: 0.13 mGy/MBq
  Radiation absorption dose, Muscle: 0.06 mGy/MBq
  Radiation absorption dose, Spleen: 0.76 mGy/MBq
  Radiation absorption dose, Tumor: 4.26 mGy/MBq
  Radiation absorption dose, Lung: 0.47 mGy/MBq
[3]
  Effect on the inhibition of tumor growth: most noticeable
  Survival of the group in week 8: all alive in week 8
  Response: Good (decrease in size of tumor to 50% or more or disappearance of tumor is classified as “Good Response.”)
  Survival time: >56 days
[4]
  Therapeutic effect on the tumors: complete disappearance of the tumors in some of the animals 2 weeks after injection
[4]; [8]
  Response: Good (decrease in size of tumor to 50% or more or disappearance of tumor is classified as “Good Response.”)
  Survival time: >42 days
[4]; [9]
  Tumor Size After injection Week 2: Disappeared
  Tumor Size After injection Week 5: Disappeared
[5]
  Response: Good (decrease in size of tumor to 50% or more or disappearance of tumor is classified as “Good Response.”)
  Survival time: >30 days
  Change of tumor size 4 weeks after injection: the tumors in all of the animals shrank in 4 weeks of injection

## arsenic trioxide [reference compound]
[3]
  Effect on the inhibition of tumor growth: not significant
  Survival of the group in week 8: still alive in week 8
[3]; 0.45 mg/kg
  Response: Poor (3×) and Mild (decrease in size of tumor within 0%-40% is classified as “Mild Response”) (2×)
  Survival time: 14 day (2×) and 42 day and 7 day and 40 day
[4]
  Therapeutic effect on the tumors: not satisfactory
[4]; [9]
  Response: Mild (decrease in size of tumor within 0%-40% is classified as “Mild Response”) (2×) and Poor (2×)
  Survival time: >42 day (2×) and 36 day and 39 day
[5]
  Survival time: >30 days
  Change of tumor size 4 weeks after injection: slightly smaller than the size of the tumors 1 week after injection, while the tumors in some of the animals still grew
[5]; 0.45 mg/kg
  Response: Mild (decrease in size of tumor within 0%-40% is classified as “Mild Response”) and Poor and Good (decrease in size of tumor to 50% or more or disappearance of tumor is classified as “Good Response.”)
[6]; low-dose, 0.08 mg/kg daily for 28 days intravenously
  Side effects (gastrointestinal disturbance, facial edema and cardiac toxicity): reduced
[6]; patients with relapsed acute promyelocytic leukemia, intravenously 0.08 mg/kg daily for 28 days
  complete remission rate: 80%
[6]; patients with relapsed acute promyelocytic leukemia, intravenously 10 mg/d
  complete remission (CR) rate: 90%
[7]; low concentrations
  Concentrations inducing cell differentiation: 0.1 to 0.5 µmol/L
[7]; relatively high concentrations
  Concentrations triggering apoptosis: 0.5 to 2 µmol/L

— US7803350B2, “Radioactive arsenic-containing compounds and their uses in the treatment of tumors” (Institute of Nuclear Energy Research Rocaec, priority 2003, dated 2010)
